pIC50: −log10 of the molar value.
Key:
[1] = system: Cavia porcellus; test: Ex vivo platelet aggregation of compound was measured in guinea pig up to 5 hr after intraduodenal dose of 1 mg/kg; format: functional
[2] = system: Cavia porcellus; test: Ex vivo platelet aggregation of compound was measured in guinea pig up to 5 hr after intraduodenal dose of 3 mg/kg; format: functional
[3] = species: Homo sapiens; test: Tested in vitro for the inhibition of ADP-induced aggregation of human blood platelets; format: functional
[4] = system: Cavia porcellus; test: Ex vivo platelet aggregation of compound was measured in guinea pig up to 5 hr after intraduodenal dose of 0.3 mg/kg; format: functional
[5] = biological target: T1, Integrin alpha-IIb/beta-3 (Homo sapiens, UniProt P05106+P08514); test: Inhibition of fibrinogen binding to immobilized human glycoprotein alpha IIb beta-3 integrin; format: protein-complex assay
[6] = biological target: T1, Integrin alpha-IIb/beta-3; test: Inhibition of fibrinogen binding to GPllb/IIIa receptor; format: protein-complex assay
[7] = system: Cavia porcellus; test: Ex vivo platelet aggregation of compound was measured in guinea pig up to 5 hr after intraduodenal dose of 10 mg/kg; format: functional

T1 sequence (P05106 27-788 limits assumed): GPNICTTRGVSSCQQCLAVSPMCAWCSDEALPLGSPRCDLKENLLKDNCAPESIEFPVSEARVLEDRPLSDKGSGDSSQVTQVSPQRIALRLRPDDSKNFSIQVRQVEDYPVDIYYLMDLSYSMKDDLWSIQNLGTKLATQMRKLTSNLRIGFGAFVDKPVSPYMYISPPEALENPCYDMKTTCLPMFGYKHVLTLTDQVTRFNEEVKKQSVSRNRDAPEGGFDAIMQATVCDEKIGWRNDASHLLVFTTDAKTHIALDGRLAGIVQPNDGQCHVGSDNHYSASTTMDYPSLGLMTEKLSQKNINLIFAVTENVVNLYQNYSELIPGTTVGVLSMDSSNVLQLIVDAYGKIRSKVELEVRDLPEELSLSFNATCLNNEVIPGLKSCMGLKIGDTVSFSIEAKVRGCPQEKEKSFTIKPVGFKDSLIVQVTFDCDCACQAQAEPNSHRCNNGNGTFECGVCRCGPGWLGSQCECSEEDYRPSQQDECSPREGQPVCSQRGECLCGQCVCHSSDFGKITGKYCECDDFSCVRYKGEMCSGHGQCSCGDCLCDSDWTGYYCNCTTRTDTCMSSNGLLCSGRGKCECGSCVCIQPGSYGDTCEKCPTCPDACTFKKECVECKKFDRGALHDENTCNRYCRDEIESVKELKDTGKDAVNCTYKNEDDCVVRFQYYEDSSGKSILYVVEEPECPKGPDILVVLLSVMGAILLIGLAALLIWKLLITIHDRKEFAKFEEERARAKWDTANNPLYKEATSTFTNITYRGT
T1 sequence (P08514 32-887 limits assumed): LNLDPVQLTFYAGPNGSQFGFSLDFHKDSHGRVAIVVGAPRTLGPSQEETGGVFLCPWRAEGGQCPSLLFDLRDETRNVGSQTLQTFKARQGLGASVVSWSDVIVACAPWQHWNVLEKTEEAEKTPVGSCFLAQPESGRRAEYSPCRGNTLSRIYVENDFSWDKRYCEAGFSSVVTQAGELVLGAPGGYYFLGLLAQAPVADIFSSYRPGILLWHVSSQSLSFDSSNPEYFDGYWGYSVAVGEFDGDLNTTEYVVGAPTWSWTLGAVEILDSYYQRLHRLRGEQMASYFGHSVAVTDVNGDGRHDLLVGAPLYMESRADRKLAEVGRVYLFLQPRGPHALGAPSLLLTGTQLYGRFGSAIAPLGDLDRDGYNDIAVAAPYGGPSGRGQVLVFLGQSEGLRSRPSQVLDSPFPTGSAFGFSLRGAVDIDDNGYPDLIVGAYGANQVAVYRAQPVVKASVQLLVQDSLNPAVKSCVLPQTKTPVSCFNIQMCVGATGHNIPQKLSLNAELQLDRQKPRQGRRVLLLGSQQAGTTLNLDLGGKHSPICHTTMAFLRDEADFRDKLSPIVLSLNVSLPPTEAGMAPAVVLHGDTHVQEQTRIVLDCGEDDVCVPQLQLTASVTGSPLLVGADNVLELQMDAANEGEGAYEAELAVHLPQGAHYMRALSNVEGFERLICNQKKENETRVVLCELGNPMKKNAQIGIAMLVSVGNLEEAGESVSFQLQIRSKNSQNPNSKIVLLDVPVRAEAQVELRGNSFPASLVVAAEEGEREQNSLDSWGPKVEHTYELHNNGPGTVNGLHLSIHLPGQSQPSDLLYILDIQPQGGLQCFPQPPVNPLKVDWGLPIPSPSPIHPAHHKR
T1 sequence (P08514 891-1039 limits assumed): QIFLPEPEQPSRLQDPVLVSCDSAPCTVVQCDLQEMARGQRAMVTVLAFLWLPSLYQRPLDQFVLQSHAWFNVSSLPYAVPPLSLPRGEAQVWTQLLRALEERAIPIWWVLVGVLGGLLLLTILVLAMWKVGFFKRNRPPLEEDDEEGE

Row | SMILES | pIC50 [3] | pIC50 [5] | pIC50 [6] | inhibition in vivo at 1 mg/kg [1] | inhibition in vivo at 3 mg/kg [2] | inhibition in vivo at 0.3 mg/kg [4] | inhibition in vivo at 10 mg/kg [7]
1 | CC(C)CNC(=O)[C@@H](CCCNC(=O)Cc1ccc(C(=N)N)cc1)CC(=O)O | 6.02 | 8.10 | – | – | – | – | –
2 | Cc1ccc(S(=O)(=O)N[C@@H](CCCNC(=O)Cc2ccc(C(=N)N)cc2)CC(=O)O)cc1 | 6.19 | – | – | – | – | – | 10%
3 | N=C(N)c1ccc(CC(=O)NCCC[C@@H](CC(=O)O)NC(=O)CC23C[C@H]4C[C@@H](C2)C[C@@H](C3)C4)cc1 | 7.17 | 8.66 | – | – | – | – | –
4 | Cc1ccc(S(=O)(=O)N[C@@H](CCCNC(=O)Cc2ccc(C(=N)N)cc2)C(=O)O)cc1 | 4.51 | 4.32 | – | – | – | – | –
5 | COc1ccc(CCC(=O)N[C@@H](CCCNC(=O)Cc2ccc(C(=N)N)cc2)CC(=O)O)cc1 | 7.51 | 8.96 | – | 10% | 10% | – | –

Continued, in another order:

Row | pIC50 [3] | pIC50 [5] | pIC50 [6] | SMILES | inhibition in vivo at 1 mg/kg [1] | inhibition in vivo at 3 mg/kg [2] | inhibition in vivo at 0.3 mg/kg [4] | inhibition in vivo at 10 mg/kg [7]
6 | 7.00 | – | – | CC(C)CC(=O)N[C@@H](CCCNC(=O)Cc1ccc(C(=N)N)cc1)CC(=O)O | 25% | 75% | – | –
7 | 7.74 | 9.44 | – | COc1ccc(CCC(=O)N[C@H](CCCCNC(=O)c2ccc(C(=N)N)cc2)CC(=O)O)cc1 | 90% | – | 45% | –
8 | 7.21 | 9.43 | – | N=C(N)c1ccc(CC(=O)NCCC[C@@H](CC(=O)O)NC(=O)CCC23C[C@H]4C[C@@H](C2)C[C@@H](C3)C4)cc1 | – | 10% | – | –
9 | – | – | 4.70 | Cc1ccc(S(=O)(=O)N[C@@H](CCCNC(=O)OCc2ccccc2)C(=O)O)cc1 [ORNITHINE SULFONAMIDE] | – | – | – | –
10 | 7.74 | 9.44 | – | N=C(N)c1ccc(C(=O)NCCCC[C@H](CC(=O)O)NC(=O)Cc2cccc3ccccc23)cc1 | 40% | – | – | –
11 | 7.82 | 9.27 | – | CC(C)CC(=O)N[C@H](CCCCNC(=O)c1ccc(C(=N)N)cc1)CC(=O)O | 65% | 75% | – | –
12 | 7.10 | 9.00 | – | COc1ccc(CCS(=O)(=O)N[C@H](CCCCNC(=O)c2ccc(C(=N)N)cc2)CC(=O)O)cc1 | – | – | – | –

From ChEMBL document CHEMBL1129882, “Beta-amino acid derivatives as orally active non-peptide fibrinogen receptor antagonists” (Bioorg Med Chem Lett, 1997)
